# From PubChem BioAssay AID2060492 (Molecular Pharmacology Branch, DTP, NCI, 2025)
# Tested on: 695427-040-R-J1-PDC complex spheroids, viability percent T/C
# Assay: Anticancer human tumor 695427-040-R-J1-PDC patient-derived colon adenocarcinoma cell line growth inhibition [GQUAD]
# Conditions: for IC50: curve of first compound; for viability, T/C: stronger effect = lower value
# Summary of the method: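 Viability of tumor cells grown as complex spheroids with endothelial and stromal cells, exposed to drug combinations. Top concentration at or near clinical Cmax (else 10 microM), diluted in half-log increments.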
# [1] = second compound 0.0316 µM, first compound 0.000999 µM
# [2] = second compound 0.0316 µM, first compound 0.00316 µM
# [3] = second compound 0.0316 µM, first compound 0.00999 µM
# [4] = second compound 0.0316 µM, first compound 0.0316 µM
# [5] = second compound 0.0316 µM, first compound 0.0999 µM
# [6] = second compound 0.0316 µM, first compound 0.316 µM
# [7] = second compound 0.1 µM, first compound 0.000999 µM
# [8] = second compound 0.1 µM, first compound 0.00316 µM
# [9] = second compound 0.1 µM, first compound 0.00999 µM
# [10] = second compound 0.1 µM, first compound 0.0316 µM
# [11] = second compound 0.1 µM, first compound 0.0999 µM
# [12] = second compound 0.1 µM, first compound 0.316 µM
# [13] = second compound 0.316 µM, first compound 0.000999 µM
# [14] = second compound 0.316 µM, first compound 0.00316 µM
# [15] = second compound 0.316 µM, first compound 0.00999 µM
# [16] = second compound 0.316 µM, first compound 0.0316 µM
# [17] = second compound 0.316 µM, first compound 0.0999 µM
# [18] = second compound 0.316 µM, first compound 0.316 µM
# [19] = second compound 1 µM, first compound 0.000999 µM
# [20] = second compound 1 µM, first compound 0.00316 µM
# [21] = second compound 1 µM, first compound 0.00999 µM
# [22] = second compound 1 µM, first compound 0.0316 µM
# [23] = second compound 1 µM, first compound 0.0999 µM
# [24] = second compound 1 µM, first compound 0.316 µM
# [25] = second compound 3.16 µM, first compound 0.000999 µM
# [26] = second compound 3.16 µM, first compound 0.00316 µM
# [27] = second compound 3.16 µM, first compound 0.00999 µM
# [28] = second compound 3.16 µM, first compound 0.0316 µM
# [29] = second compound 3.16 µM, first compound 0.0999 µM
# [30] = second compound 3.16 µM, first compound 0.316 µM
# [31] = second compound 10 µM, first compound 0.000999 µM
# [32] = second compound 10 µM, first compound 0.00316 µM
# [33] = second compound 10 µM, first compound 0.00999 µM
# [34] = second compound 10 µM, first compound 0.0316 µM
# [35] = second compound 10 µM, first compound 0.0999 µM
# [36] = second compound 10 µM, first compound 0.316 µM
# [37] = second compound 0.0316 µM, first compound 0.1 µM
# [38] = second compound 0.0316 µM, first compound 1 µM
# [39] = second compound 0.0316 µM, first compound 3.16 µM
# [40] = second compound 0.0316 µM, first compound 10 µM
# [41] = second compound 0.1 µM, first compound 0.1 µM
# [42] = second compound 0.1 µM, first compound 1 µM
# [43] = second compound 0.1 µM, first compound 3.16 µM
# [44] = second compound 0.1 µM, first compound 10 µM
# [45] = second compound 0.316 µM, first compound 0.1 µM
# [46] = second compound 0.316 µM, first compound 1 µM
# [47] = second compound 0.316 µM, first compound 3.16 µM
# [48] = second compound 0.316 µM, first compound 10 µM
# [49] = second compound 1 µM, first compound 0.1 µM
# [50] = second compound 1 µM, first compound 1 µM
# [51] = second compound 1 µM, first compound 3.16 µM
# [52] = second compound 1 µM, first compound 10 µM
# [53] = second compound 3.16 µM, first compound 0.1 µM
# [54] = second compound 3.16 µM, first compound 1 µM
# [55] = second compound 3.16 µM, first compound 3.16 µM
# [56] = second compound 3.16 µM, first compound 10 µM
# [57] = second compound 10 µM, first compound 0.1 µM
# [58] = second compound 10 µM, first compound 1 µM
# [59] = second compound 10 µM, first compound 3.16 µM
# [60] = second compound 10 µM, first compound 10 µM
# 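Also: spheroids exposed to compounds for seven days before readout.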
smiles,measurement,setting,value
CC[C@@]1(O)C(=O)OCc2c1cc1n(c2=O)Cc2cc3c(CN(C)C)c(O)ccc3nc2-1 + Cc1cnc(CNC(=O)c2c(=O)c3ccc(N4CCCN(C)CC4)nc3n3c2sc2ccccc23)cn1,IC50,second compound 0.0316 µM,> 316 nM
same,IC50,second compound 0.1 µM,> 316 nM
same,IC50,second compound 0.316 µM,> 316 nM
same,IC50,second compound 1 µM,> 316 nM
same,IC50,second compound 3.16 µM,< 0.999 nM
same,IC50,second compound 10 µM,< 0.999 nM
same,"viability, T/C",[1],92.5%
same,"viability, T/C",[2],82.5%
same,"viability, T/C",[3],89.7%
same,"viability, T/C",[4],76%
same,"viability, T/C",[5],82.8%
same,"viability, T/C",[6],79.2%
same,"viability, T/C",[7],95.5%
same,"viability, T/C",[8],74.4%
same,"viability, T/C",[9],90.8%
same,"viability, T/C",[10],67.7%
same,"viability, T/C",[11],91.6%
same,"viability, T/C",[12],77.5%
same,"viability, T/C",[13],73.2%
same,"viability, T/C",[14],66.6%
same,"viability, T/C",[15],69%
same,"viability, T/C",[16],61.1%
same,"viability, T/C",[17],80.5%
same,"viability, T/C",[18],65.6%
same,"viability, T/C",[19],56.4%
same,"viability, T/C",[20],69.8%
same,"viability, T/C",[21],58.3%
same,"viability, T/C",[22],65.7%
same,"viability, T/C",[23],70.9%
same,"viability, T/C",[24],63.8%
same,"viability, T/C",[25],45.8%
same,"viability, T/C",[26],56.8%
same,"viability, T/C",[27],54.8%
same,"viability, T/C",[28],53.5%
same,"viability, T/C",[29],65.7%
same,"viability, T/C",[30],48.4%
same,"viability, T/C",[31],28.6%
same,"viability, T/C",[32],51.3%
same,"viability, T/C",[33],54%
same,"viability, T/C",[34],49.4%
same,"viability, T/C",[35],48.8%
same,"viability, T/C",[36],40.2%
CCc1c2c(nc3ccc(O)cc13)-c1cc3c(c(=O)n1C2)COC(=O)[C@]3(O)CC + Cc1cnc(CNC(=O)c2c(=O)c3ccc(N4CCCN(C)CC4)nc3n3c2sc2ccccc23)cn1,IC50,second compound 0.0316 µM,81.3 nM
same,IC50,second compound 0.1 µM,49 nM
same,IC50,second compound 0.316 µM,27.3 nM
same,IC50,second compound 1 µM,26.1 nM
same,IC50,second compound 3.16 µM,3.02 nM
same,IC50,second compound 10 µM,< 0.999 nM
same,"viability, T/C",[1],82.6%
same,"viability, T/C",[2],75.7%
same,"viability, T/C",[3],81.1%
same,"viability, T/C",[4],57.9%
same,"viability, T/C",[5],50.1%
same,"viability, T/C",[6],34.5%
same,"viability, T/C",[7],91.4%
same,"viability, T/C",[8],68.6%
same,"viability, T/C",[9],73.2%
same,"viability, T/C",[10],47.5%
same,"viability, T/C",[11],47.5%
same,"viability, T/C",[12],33.8%
same,"viability, T/C",[13],85.3%
same,"viability, T/C",[14],57%
same,"viability, T/C",[15],63.6%
same,"viability, T/C",[16],49.8%
same,"viability, T/C",[17],43.2%
same,"viability, T/C",[18],31.1%
same,"viability, T/C",[19],66.1%
same,"viability, T/C",[20],63.6%
same,"viability, T/C",[21],53.1%
same,"viability, T/C",[22],47.7%
same,"viability, T/C",[23],40.4%
same,"viability, T/C",[24],19.1%
same,"viability, T/C",[25],55.1%
same,"viability, T/C",[26],47.3%
same,"viability, T/C",[27],44.8%
same,"viability, T/C",[28],38.9%
same,"viability, T/C",[29],31.2%
same,"viability, T/C",[30],7.33%
same,"viability, T/C",[31],39.7%
same,"viability, T/C",[32],33.7%
same,"viability, T/C",[33],40.2%
same,"viability, T/C",[34],37.7%
same,"viability, T/C",[35],9.89%
same,"viability, T/C",[36],0.52%
COc1cccc2c1C(=O)c1c(O)c3c(c(O)c1C2=O)CC(O)(C(=O)CO)CC3OC1CC(N)C(O)C(C)O1 (stereo not drawn) + Cc1cnc(CNC(=O)c2c(=O)c3ccc(N4CCCN(C)CC4)nc3n3c2sc2ccccc23)cn1,IC50,second compound 0.0316 µM,1510 nM
same,IC50,second compound 0.1 µM,1990 nM
same,IC50,second compound 0.316 µM,1920 nM
same,IC50,second compound 1 µM,557 nM
same,IC50,second compound 3.16 µM,< 31.6 nM
same,IC50,second compound 10 µM,< 31.6 nM
same,"viability, T/C",[4],96.5%
same,"viability, T/C",[37],68%
same,"viability, T/C",[6],70%
same,"viability, T/C",[38],56.8%
same,"viability, T/C",[39],38.7%
same,"viability, T/C",[40],40.4%
same,"viability, T/C",[10],86.3%
same,"viability, T/C",[41],70.6%
same,"viability, T/C",[12],85.3%
same,"viability, T/C",[42],62.3%
same,"viability, T/C",[43],45%
same,"viability, T/C",[44],38.4%
same,"viability, T/C",[16],72.2%
same,"viability, T/C",[45],69.8%
same,"viability, T/C",[18],64.9%
same,"viability, T/C",[46],60.4%
same,"viability, T/C",[47],42.4%
same,"viability, T/C",[48],34.4%
same,"viability, T/C",[22],60.2%
same,"viability, T/C",[49],56.8%
same,"viability, T/C",[24],59.6%
same,"viability, T/C",[50],41%
same,"viability, T/C",[51],34.2%
same,"viability, T/C",[52],24.2%
same,"viability, T/C",[28],43.8%
same,"viability, T/C",[53],55.6%
same,"viability, T/C",[30],48%
same,"viability, T/C",[54],28.1%
same,"viability, T/C",[55],28.9%
same,"viability, T/C",[56],14.9%
same,"viability, T/C",[34],32.1%
same,"viability, T/C",[57],45%
same,"viability, T/C",[36],43.5%
same,"viability, T/C",[58],26.4%
same,"viability, T/C",[59],20.2%
same,"viability, T/C",[60],3.89%
Nc1ccn(C2OC(CO)C(O)C2(F)F)c(=O)n1 (stereo not drawn) + Cc1cnc(CNC(=O)c2c(=O)c3ccc(N4CCCN(C)CC4)nc3n3c2sc2ccccc23)cn1,IC50,second compound 0.0316 µM,> 10000 nM
same,IC50,second compound 0.1 µM,> 10000 nM
same,IC50,second compound 0.316 µM,> 10000 nM
same,IC50,second compound 1 µM,> 10000 nM
same,IC50,second compound 3.16 µM,< 31.6 nM
same,IC50,second compound 10 µM,< 31.6 nM
same,"viability, T/C",[4],91.9%
same,"viability, T/C",[37],81.2%
same,"viability, T/C",[6],73.6%
same,"viability, T/C",[38],49.4%
same,"viability, T/C",[39],55.1%
same,"viability, T/C",[40],53.9%
same,"viability, T/C",[10],93.8%
same,"viability, T/C",[41],72.5%
same,"viability, T/C",[12],65.9%
same,"viability, T/C",[42],52%
same,"viability, T/C",[43],56.4%
same,"viability, T/C",[44],61.3%
same,"viability, T/C",[16],70%
same,"viability, T/C",[45],66%
same,"viability, T/C",[18],61.7%
same,"viability, T/C",[46],64.8%
same,"viability, T/C",[47],64.2%
same,"viability, T/C",[48],53.5%
same,"viability, T/C",[22],60.6%
same,"viability, T/C",[49],55.2%
same,"viability, T/C",[24],54.9%
same,"viability, T/C",[50],52.8%
same,"viability, T/C",[51],56.4%
same,"viability, T/C",[52],54.6%
same,"viability, T/C",[28],42.7%
same,"viability, T/C",[53],50.9%
same,"viability, T/C",[30],54.3%
same,"viability, T/C",[54],47.3%
same,"viability, T/C",[55],46.4%
same,"viability, T/C",[56],36%
same,"viability, T/C",[34],35.1%
same,"viability, T/C",[57],41.7%
same,"viability, T/C",[36],40.1%
same,"viability, T/C",[58],29%
same,"viability, T/C",[59],36.7%
same,"viability, T/C",[60],29.8%
